This is an account of results in US12297434B1, “Biomarker for predicting drug resistance of bruton's tyrosine kinase inhibitors and application thereof” (Beijing Friendship Hospital, Capital Medical University, priority 2024, dated 2025).

Holding throughout (assay type): cell-based, Human
One assay has as its system SUDHL2 cells. Nature of the assay: CCK8 cell viability, zebutinib on SUDHL2. The settings on record: parental ABC-DLBCL cell line SUDHL2, CCK8 method; read-out: half maximal inhibitory concentration (IC50). The text has this:
(§1) Human ABC-DLBCL cell lines (SUDHL2, U2932 and OCI-LY10) are purchased from American Type Culture Collection (ATCC) cell bank. The BTK inhibitor-resistant ABC-DLBCL-R cell line is constructed according to the drug concentration gradient increment method, and the BTK inhibitor used in the present disclosure is zebutinib. […] All the patients were diagnosed according to the 2016 revision of the WHO classification of lymphoid neoplasms. Before the study, written informed consent was obtained from each patient and healthy volunteer.
(§2) The drug concentration gradient is used to induce zebutinib resistance to BTK inhibitor in ABC-DLBCL cell lines (SUDHL2, U2932 and OCI-LY10). Tumor cells in the logarithmic growth phase are taken, and zebutinib at a starting concentration of 2 micromoles per liter (μmol/L) (about 1/10 of the IC50 of the parental cell line) is added to act for 24 hours (h). […]
(§3) Cell activity is measured using a cell counting kit-8 (CCK-8, Dojindo, Japan). […] The absorbance at 450 nm is measured by ELX808 microplate spectrophotometer (BioTekInstruments, Winooski, VT, USA). Colony formation experiment: cells are inoculated into a 6-well plate with 500 cells per well, three copies in one group, and cultured for 10-14 days to form colonies, followed by […] in formaldehyde and staining with crystal violet, and the visible colonies are counted. […]

Assay [1] has as its system SUDHL2-R cells (zebutinib-resistant ABC-DLBCL cell line). The experiment in a line: CCK8 cell viability, zebutinib on SUDHL2-R.
Source text: as §1, §2, §3

For a further assay, the system named is OCI-LY10 cells. The experiment in a line: CCK8 cell viability, zebutinib on OCI-LY10. The settings on record: parental ABC-DLBCL cell line OCI-LY10, CCK8 method; read-out: half maximal inhibitory concentration (IC50).
Source text: as §1, §2, §3

The test system of a further assay is U2932 cells. Nature of the assay: CCK8 cell viability, zebutinib on U2932. The conditions noted are these: parental ABC-DLBCL cell line U2932, CCK8 method; read-out: half maximal inhibitory concentration (IC50).
Source text: as §1, §2, §3

Assay [2] deals with OCI-LY10-R cells (zebutinib-resistant ABC-DLBCL cell line). The experiment in a line: CCK8 cell viability, zebutinib on OCI-LY10-R.
Source text: as §1, §2, §3

For assay [3], the system named is U2932-R cells (zebutinib-resistant ABC-DLBCL cell line). The experiment in a line: CCK8 cell viability, zebutinib on U2932-R.
Source text: as §1, §2, §3

For `C=CC(=O)N1CCC([C@@H]2CCNc3c(C(N)=O)c(-c4ccc(Oc5ccccc5)cc4)nn32)CC1` [zebutinib], the IC50 came to 17.1 µM in the assay on SUDHL2 cells; 90.3 µM in assay [1] (drug-resistant cell line SUDHL2-R, CCK8 method, read-out: half maximal inhibitory concentration (IC50)); 22.5 µM with OCI-LY10 cells; 28 µM with U2932 cells; 118 µM in assay [2] (drug-resistant cell line OCI-LY10-R, CCK8 method, read-out: half maximal inhibitory concentration (IC50)); 144 µM in assay [3] (drug-resistant cell line U2932-R, CCK8 method, read-out: half maximal inhibitory concentration (IC50)). Also, the “resistance index (RI)” value came out at 5.28 in assay [1] (RI=IC50 of drug-resistant cell line/IC50 of parental cell line, SUDHL2-R vs SUDHL2); 5.23 in assay [2] (RI=IC50 of drug-resistant cell line/IC50 of parental cell line, OCI-LY10-R vs OCI-LY10); 5.14 in assay [3] (RI=IC50 of drug-resistant cell line/IC50 of parental cell line, U2932-R vs U2932).
